Experimental data reported in US20180055844A1 (Celgene Corporation, priority 2011, published 2018).
Several values for one entry are separate records, joined by “and”; a condition that tells them apart may be missing. Identical values can stand only once. Entries after “also recorded” stand apart in the source; their conditions may differ. Like-named read-outs stand apart in the source and are kept apart here.

How the values were obtained:
NFκB p65 and p50 = test: NFκB activity in DLBCL cells (Active Motif transcription factor assay); format: cell-based; conditions: 0.1 μM, 1 μM and 10 μM, 2 days
Source text: NF-κB activity was examined with Active Motif transcription factor assay using nuclear extracts from cells following treatment.

SK-HEP-1 = test: Invasion of solid tumor cells; format: cell-based; conditions: Homo sapiens, SK-HEP1; SK-HEP-1 (VEGF), hepatocellular
U251 [1] = test: Invasion of solid tumor cells; format: cell-based; conditions: Homo sapiens, U-251; U251 (PDGF), glioblastoma
SF268 = test: Solid tumor cell colony formation; format: cell-based; conditions: Homo sapiens, SF-268
U87 GB xenograft = U87 GB xenograft model; format: in vivo; conditions: 3 and 30 mg/kg qd
U87 = test: Solid tumor cell colony formation; format: cell-based; conditions: Homo sapiens, U-87 MG
HUVEC [2] = test: HUVEC tube formation; format: cell-based, human
Colo-205 = test: Solid tumor cell colony formation; format: cell-based; conditions: Homo sapiens
blood vessel growth = test: Mouse Matrigel angiogenesis assay; format: in vivo; conditions: 30 mpk
MDA-MB-453 = test: Solid tumor cell colony formation; format: cell-based; conditions: Homo sapiens
U251 [3] = test: Solid tumor cell colony formation; format: cell-based; conditions: Homo sapiens, U-251
TNFα = test: LPS-induced TNFα; format: cell-based
MCF-7 = test: Solid tumor cell colony formation; format: cell-based; conditions: Homo sapiens, MCF7
HCT15 = test: Solid tumor cell colony formation; format: cell-based; conditions: Homo sapiens, HCT-15
HIF-1α = HIF-1α protein expression in solid tumor cell lines; format: cell-based; conditions: 1 μM
ZR-75-1 = test: Solid tumor cell colony formation; format: cell-based; conditions: Homo sapiens
SF-539 = test: Invasion of solid tumor cells; format: cell-based; conditions: Homo sapiens; SF-539 (PDGF), glioblastoma
SUDHL4 = test: 5 day 3H thymidine incorporation assay; format: cell-based; conditions: Homo sapiens, SU-DHL-4; SUDHL4, GCB subtype
Source text: (§1) Results of 3 independent experiments are shown (mean±SD) in FIG. 2. […] ABC-subtype cells appear more sensitive to the antiproliferative effect than other subtype cells including GCB-DLBCL and PMBL cells.

OCI-Ly10 = test: 5 day 3H thymidine incorporation assay; format: cell-based; conditions: Homo sapiens; OCI-Ly10, ABC subtype
Source text: as §1

OCI-Ly19 = test: 5 day 3H thymidine incorporation assay; format: cell-based; conditions: Homo sapiens; OCI-Ly19, GCB subtype
Source text: as §1

Karpas-1106P = test: 5 day 3H thymidine incorporation assay; format: cell-based; conditions: Homo sapiens, PMBL
Source text: as §1

U2932 = test: 5 day 3H thymidine incorporation assay; format: cell-based; conditions: Homo sapiens; U2932, ABC subtype
Source text: as §1

WSU-DLCL2 = test: 5 day 3H thymidine incorporation assay; format: cell-based; conditions: Homo sapiens, WSUDLCL2; WSU-DLCL2, GCB subtype
Source text: as §1

TMD8 = test: 5 day 3H thymidine incorporation assay; format: cell-based; conditions: Homo sapiens; TMD8, ABC subtype
Source text: as §1

RIVA = test: 5 day 3H thymidine incorporation assay; format: cell-based; conditions: ABC subtype
Source text: as §1

[4] = PK profiles in male monkeys; format: in vivo, monkey; conditions: for AUC(0-t) / Cmax: monkey, in vivo, po, male monkeys
SF-295 = test: Invasion of solid tumor cells; format: cell-based; conditions: Homo sapiens; SF-295 (PDGF), glioblastoma
SNB-19 = test: Invasion of solid tumor cells; format: cell-based; conditions: Homo sapiens; SNB-19 (PDGF), glioblastoma
HUVEC [5] = test: HUVEC migration; format: cell-based; conditions: Homo sapiens
[6] = system: multiple myeloma (MM) cell lines; test: Inhibition of MM cell proliferation; format: cell-based
Method: The ability of compounds to effect the proliferation of MM cell lines was investigated in an in vitro study. Uptake of [^3H]-thymidine by H929 MM cells and 7-AAD uptake in several MM cell lines (H929, U266B1, Anbl-6, KMS-34, OPM-2, DF-15, DF15/R, CAG, MM1.S and LP-1) was measured as an indicator of cell proliferation. Cells were incubated in the presence of compounds for 72 hours ([^3H]-thymidine was included for the last 6 hours of the incubation period) or 5 days followed by 7-AAD uptake to measure and count viable cells.

[7] = Proliferation assays with Rituxan (Chou-Talalay method); format: cell-based
WSU-DLCL2 xenograft = WSU-DLCL2 xenograft model; format: in vivo; conditions: combination with Rituxan (2 mg/kg iv qw)

## Cc1nc2cccc(N)c2c(=O)n1C1CCC(=O)NC1=O (stereo not drawn) [compound of Formula I, 3-(5-amino-2-methyl-4-oxo-4H-quinazolin-3-yl)-piperidine-2,6-dione]
NFκB p65 and p50
  NFκB p65 and p50 activity: significantly inhibits
SK-HEP-1
  IC50: 6.1 nM
U251 [1]
  IC50: 3.7 µM
SF268
  inhibition at 10 µM: 0.6%
U87 GB xenograft
  U87 tumor growth: significantly inhibited; also recorded: inhibits
U87
  inhibition at 10 µM: 2%
HUVEC [2]
  VEGF and bFGF-induced HUVEC tube formation and migration: weakly inhibited
Colo-205
  inhibition at 10 µM: 17%
Blood vessel growth
  blood vessel growth: significantly inhibited
MDA-MB-453
  inhibition at 10 µM: -7%
U251 [3]
  inhibition at 10 µM: -6%
TNFα
  IC50: 17 nM
MCF-7
  inhibition at 10 µM: 1.4%
HCT15
  inhibition at 10 µM: 3%
HIF-1α; 786-O (renal cancer)
  % Inhibition of HIF-1α protein expression: 41.70%
HIF-1α; DU145 (prostate cancer)
  % Inhibition of HIF-1α protein expression: 66.01%
HIF-1α; HCT15 (colorectal cancer)
  % Inhibition of HIF-1α protein expression: 69.26%
HIF-1α; HCT116 (colorectal cancer)
  % Inhibition of HIF-1α protein expression: 74.60%
HIF-1α; HT29 (colorectal cancer)
  % Inhibition of HIF-1α protein expression: 78.54%
HIF-1α; MCF-7 (breast cancer)
  % Inhibition of HIF-1α protein expression: 74.82%
HIF-1α; Miapaca-3 (pancreatic cancer)
  % Inhibition of HIF-1α protein expression: 33.72%
HIF-1α; Ovcar-3 (ovarian cancer)
  % Inhibition of HIF-1α protein expression: 63.39%
HIF-1α; Skov-3 (ovarian cancer)
  % Inhibition of HIF-1α protein expression: 100.00%
HIF-1α; U87 (brain cancer)
  % Inhibition of HIF-1α protein expression: 73.81%
ZR-75-1
  inhibition at 10 µM: 90%
SF-539
  IC50: 25 nM
SUDHL4
  IC50: > 10 µM
OCI-Ly10
  IC50: 8.5 nM
OCI-Ly19
  IC50: > 10 µM
Karpas-1106P
  IC50: 580 to 710 nM
U2932
  IC50: 110 to 120 nM
WSU-DLCL2
  IC50: 790 to 2100 nM
TMD8
  IC50: 440 nM
RIVA
  IC50: 4.3 µM
[4]; 0.3 mg/kg
  AUC(0-t): 1300 ng·h/mL and 4.5 µM·h
  Cmax: 100 ng/mL and 360 nM
[4]; 3 mg/kg
  AUC(0-t): 14000 ng·h/mL and 49 µM·h
  Cmax: 1100 ng/mL and 3.8 µM
[4]; 10 mg/kg
  AUC(0-t): 38000 ng·h/mL and 130 µM·h
  Cmax: 3100 ng/mL and 11 µM
[4]; 30 mg/kg
  AUC(0-t): 99000 ng·h/mL and 350 µM·h
  Cmax: 7700 ng/mL and 27 µM
[4]; up to 30 mg/kg, male monkey
  Exposures (AUC(0-t)) versus dose: increased in a dose proportional manner
SF-295
  IC50: 240 nM
SNB-19
  IC50: 160 nM
HUVEC [5]; read-out: inhibition of VEGF-induced migration
  inhibition at 1 µM: 38%
HUVEC [5]; read-out: inhibition of bFGF-induced migration
  inhibition at 1 µM: 28%
[6]
  MM cell proliferation in a number of cell lines: inhibit MM cell proliferation
[7]
  interaction with Rituxan in proliferation assays: synergistically
WSU-DLCL2 xenograft; 3 mg
  complete regressions (tumor volume<25 mm^3): 60%
WSU-DLCL2 xenograft; 30 mg
  complete regressions (tumor volume<25 mm^3): 90%
